Assay results as given in ChEMBL document CHEMBL4680155, “One-pot synthesis and molecular docking of some new spiropyranindol-2-one derivatives as immunomodulatory agents and in vitro antimicrobial potential with DNA gyrase inhibitor” (Eur J Med Chem, 2020).
Values after ≈ are worked out from the molar mass of the structure shown.

How the values were obtained:
[1] = test system: Escherichia coli; assay: Antibacterial activity against multidrug resistant Escherichia coli ATCC BAA-196 assessed as reduction in bacterial growth incubated for 1 day by paper disk diffusion method; format: functional; details: ATCC BAA-196, 24 h
[2] = test system: Enterococcus faecalis; assay: Antibacterial activity against Enterococcus faecalis ATCC 29212 assessed as diameter of inhibition zone at 0.5 mg/ml incubated for 24 hrs by agar diffusion method; format: functional; details: read-out: DIZ
[3] = test system: Escherichia coli; assay: Antibacterial activity against multidrug resistant Escherichia coli ATCC BAA-196 assessed as diameter of inhibition zone at 0.5 mg/ml incubated for 24 hrs by agar diffusion method; format: functional; details: read-out: DIZ
[4] = test system: Staphylococcus aureus; assay: Antibacterial activity against multidrug resistant Staphylococcus aureus ATCC 33591 assessed as reduction in bacterial growth incubated for 1 day by paper disk diffusion method; format: functional; details: ATCC 33591, 24 h
[5] = test system: Pseudomonas aeruginosa; assay: Antibacterial activity against multidrug resistant Pseudomonas aeruginosa ATCC BAA-2111 assessed as reduction in bacterial growth incubated for 1 day by paper disk diffusion method; format: functional; details: ATCC BAA-2111, 24 h
[6] = test system: Pseudomonas aeruginosa; assay: Bactericidal activity against Pseudomonas aeruginosa ATCC BAA-2111 incubated for 24 hrs followed by transferring to freshly prepared broth medium and measured after 24 hrs by broth microdilution assay; format: functional; details: time 48 hrs
[7] = test system: Salmonella typhimurium; assay: Antibacterial activity against Salmonella typhi ATCC 6539 assessed as reduction in bacterial growth incubated for 1 day by paper disk diffusion method; format: functional, Salmonella enterica subsp. enterica serovar Typhimurium; details: Salmonella enterica, ATCC 6539, 24 h
[8] = test system: Pseudomonas aeruginosa; assay: Antibacterial activity against multidrug resistant Pseudomonas aeruginosa ATCC BAA-2111 assessed as diameter of inhibition zone at 0.5 mg/ml incubated for 24 hrs by agar diffusion method; format: functional; details: read-out: DIZ
[9] = test system: Enterococcus faecalis; assay: Bactericidal activity against Enterococcus faecalis ATCC 29212 incubated for 24 hrs followed by transferring to freshly prepared broth medium and measured after 24 hrs by broth microdilution assay; format: functional; details: time 48 hrs
[10] = test system: Escherichia coli; assay: Antibacterial activity against Escherichia coli ATCC 25922 assessed as reduction in bacterial growth incubated for 1 day by paper disk diffusion method; format: functional; details: ATCC 25922, 24 h
[11] = test system: Aspergillus brasiliensis; assay: Antifungal activity against Aspergillus brasiliensis ATCC 16404 assessed as diameter of inhibition zone at 0.5 mg/ml incubated for 72 hrs by agar diffusion method; format: functional; details: read-out: DIZ
[12] = test system: Staphylococcus aureus; assay: Bactericidal activity against Staphylococcus aureus ATCC 29213 incubated for 24 hrs followed by transferring to freshly prepared broth medium and measured after 24 hrs by broth microdilution assay; format: functional; details: time 48 hrs
[13] = test system: Escherichia coli; assay: Bactericidal activity against Escherichia coli ATCC BAA-196 incubated for 24 hrs followed by transferring to freshly prepared broth medium and measured after 24 hrs by broth microdilution assay; format: functional; details: time 48 hrs
[14] = test system: Neutrophil; assay: Immunomodulatory activity in human neutrophils infected with bacteria assessed as increase in bacterial killing by measuring reduced NBT incubated for 30 mins by NBT dye based spectrophotometry; format: functional; parameters: concentration or dose not given beside the values; details: 0.5 h
[15] = test system: Enterococcus faecalis; assay: Antibacterial activity against Enterococcus faecalis ATCC 29212 assessed as reduction in bacterial growth incubated for 1 day by paper disk diffusion method; format: functional; details: ATCC 29212, 24 h
[16] = test system: Staphylococcus aureus; assay: Bactericidal activity against Staphylococcus aureus ATCC 33591 incubated for 24 hrs followed by transferring to freshly prepared broth medium and measured after 24 hrs by broth microdilution assay; format: functional; details: time 48 hrs
[17] = test system: Candida albicans; assay: Antifungal activity against Candida albicans ATCC 10231 assessed as reduction in bacterial growth incubated for 1 day by paper disk diffusion method; format: functional; details: ATCC 10231, 24 h
[18] = test system: Staphylococcus aureus; assay: Bactericidal activity against Staphylococcus aureus ATCC 43300 incubated for 24 hrs followed by transferring to freshly prepared broth medium and measured after 24 hrs by broth microdilution assay; format: functional; details: time 48 hrs
[19] = test system: Escherichia coli; assay: Antibacterial activity against Escherichia coli ATCC 25922 assessed as diameter of inhibition zone at 0.5 mg/ml incubated for 24 hrs by agar diffusion method; format: functional; details: read-out: DIZ
[20] = test system: Staphylococcus aureus; assay: Antibacterial activity against multidrug resistant Staphylococcus aureus ATCC 43300 assessed as reduction in bacterial growth incubated for 1 day by paper disk diffusion method; format: functional; details: ATCC 43300, 24 h
[21] = test system: Staphylococcus aureus; assay: Antibacterial activity against Staphylococcus aureus ATCC 29213 assessed as reduction in bacterial growth incubated for 1 day by paper disk diffusion method; format: functional; details: ATCC 29213, 24 h
[22] = test system: Salmonella typhimurium; assay: Bactericidal activity against Salmonella typhi ATCC 6539 incubated for 24 hrs followed by transferring to freshly prepared broth medium and measured after 24 hrs by broth microdilution assay; format: functional, Salmonella enterica subsp. enterica serovar […]; details: Salmonella enterica, time 48 hrs
[23] = test system: Aspergillus brasiliensis; assay: Antifungal activity against Aspergillus brasiliensis ATCC 16404 assessed as reduction in bacterial growth incubated for 3 days by paper disk diffusion method; format: functional; details: ATCC 16404, 72 h, time 3 day
[24] = test system: Staphylococcus aureus; assay: Antibacterial activity against Staphylococcus aureus ATCC 29213 assessed as diameter of inhibition zone at 0.5 mg/ml incubated for 24 hrs by agar diffusion method; format: functional; details: read-out: DIZ
[25] = test system: Staphylococcus aureus; assay: Antibacterial activity against multidrug resistant Staphylococcus aureus ATCC 43300 assessed as diameter of inhibition zone at 0.5 mg/ml incubated for 24 hrs by agar diffusion method; format: functional; details: read-out: DIZ
[26] = molecular target: DNA gyrase (Staphylococcus aureus, UniProt P0A0K8+P20831); assay: Inhibition of Staphylococcus aureus DNA gyrase using relaxed pBR322 DNA as substrate incubated for 45 mins by agarose gel electrophoresis method; format: protein-complex assay
Sequence of DNA gyrase (P0A0K8 whole entry, the tested form may be a part): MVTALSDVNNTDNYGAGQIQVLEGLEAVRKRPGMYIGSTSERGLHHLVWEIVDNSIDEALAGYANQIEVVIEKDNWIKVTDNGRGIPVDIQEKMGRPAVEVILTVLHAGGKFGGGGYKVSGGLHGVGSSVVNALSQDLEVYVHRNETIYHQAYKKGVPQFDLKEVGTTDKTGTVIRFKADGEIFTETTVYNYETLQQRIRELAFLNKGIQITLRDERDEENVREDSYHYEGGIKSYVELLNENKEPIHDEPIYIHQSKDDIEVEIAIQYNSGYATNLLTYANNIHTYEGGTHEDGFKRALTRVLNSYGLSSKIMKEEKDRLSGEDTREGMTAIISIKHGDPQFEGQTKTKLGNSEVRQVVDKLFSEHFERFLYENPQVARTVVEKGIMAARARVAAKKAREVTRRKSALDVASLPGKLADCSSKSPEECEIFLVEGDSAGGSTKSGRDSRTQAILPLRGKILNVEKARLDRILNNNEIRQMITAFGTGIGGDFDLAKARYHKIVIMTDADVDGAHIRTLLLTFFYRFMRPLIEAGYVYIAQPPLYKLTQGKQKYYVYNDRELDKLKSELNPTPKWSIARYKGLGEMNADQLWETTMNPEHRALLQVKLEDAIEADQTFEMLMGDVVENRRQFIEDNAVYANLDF
Sequence of DNA gyrase (P20831 whole entry, the tested form may be a part): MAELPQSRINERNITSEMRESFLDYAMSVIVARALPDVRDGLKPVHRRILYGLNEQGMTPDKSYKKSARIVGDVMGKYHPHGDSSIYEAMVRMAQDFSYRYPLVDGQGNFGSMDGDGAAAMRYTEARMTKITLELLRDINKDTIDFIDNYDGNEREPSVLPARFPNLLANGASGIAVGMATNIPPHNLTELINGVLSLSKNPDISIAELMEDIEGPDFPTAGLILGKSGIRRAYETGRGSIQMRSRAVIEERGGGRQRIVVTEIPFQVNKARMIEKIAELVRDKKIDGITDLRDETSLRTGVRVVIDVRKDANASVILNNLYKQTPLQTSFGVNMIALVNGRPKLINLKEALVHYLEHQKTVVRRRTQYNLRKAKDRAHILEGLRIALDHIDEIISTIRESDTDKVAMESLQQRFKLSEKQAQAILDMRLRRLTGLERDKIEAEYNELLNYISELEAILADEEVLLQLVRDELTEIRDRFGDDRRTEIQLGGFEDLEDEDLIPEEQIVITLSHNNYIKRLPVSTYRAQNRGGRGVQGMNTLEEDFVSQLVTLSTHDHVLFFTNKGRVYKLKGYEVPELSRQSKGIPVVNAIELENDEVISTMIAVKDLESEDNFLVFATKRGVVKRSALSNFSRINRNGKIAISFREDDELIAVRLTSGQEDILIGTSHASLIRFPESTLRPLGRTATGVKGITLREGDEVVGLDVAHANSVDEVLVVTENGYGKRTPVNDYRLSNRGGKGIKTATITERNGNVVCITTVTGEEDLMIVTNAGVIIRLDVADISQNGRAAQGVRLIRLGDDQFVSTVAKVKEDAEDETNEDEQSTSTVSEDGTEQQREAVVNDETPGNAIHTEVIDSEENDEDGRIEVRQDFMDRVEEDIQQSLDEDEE

[27] = test system: Staphylococcus aureus; assay: Antibacterial activity against multidrug resistant Staphylococcus aureus ATCC 33591 assessed as diameter of inhibition zone at 0.5 mg/ml incubated for 24 hrs by agar diffusion method; format: functional; details: read-out: DIZ
[28] = test system: Escherichia coli; assay: Bactericidal activity against Escherichia coli ATCC 25922 incubated for 24 hrs followed by transferring to freshly prepared broth medium and measured after 24 hrs by broth microdilution assay; format: functional; details: time 48 hrs
[29] = test system: Candida albicans; assay: Fungicidal activity against Candida albicans ATCC 10231 incubated for 24 hrs followed by transferring to freshly prepared broth medium and measured after 24 hrs by broth microdilution assay; format: functional; details: time 48 hrs
[30] = test system: Aspergillus brasiliensis; assay: Fungicidal activity against Aspergillus brasiliensis ATCC 16404 incubated for 72 hrs followed by transferring to freshly prepared broth medium and measured after 24 hrs by broth microdilution assay; format: functional; details: time 96 hrs
[31] = test system: Salmonella typhimurium; assay: Antibacterial activity against Salmonella typhi ATCC 6539 assessed as diameter of inhibition zone at 0.5 mg/ml incubated for 24 hrs by agar diffusion method; format: functional, Salmonella enterica subsp. enterica serovar Typhimurium; details: Salmonella enterica, read-out: DIZ
[32] = test system: Candida albicans; assay: Antifungal activity against Candida albicans ATCC 10231 assessed as diameter of inhibition zone at 0.5 mg/ml incubated for 24 hrs by agar diffusion method; format: functional; details: read-out: DIZ

Work on CCOC(=O)C1=C(N)OC(C)=C(C(C)=O)C12C(=O)Nc1ccc(S(=O)(=O)N3CCOCC3)cc12 (centres undefined) yielded an MIC [1] of 3.9 µg/mL (≈ 7.93 µM), a zone of inhibition at 500 µg/mL [2] of 19 mm and a zone of inhibition at 500 µg/mL [3] of 24 mm. For the same molecule, the MIC [4] was 3.9 µg/mL (≈ 7.93 µM), the MIC [5] was 7.81 µg/mL (≈ 15.9 µM) and the MBC [6] was 12.5 µg/mL (≈ 25.4 µM). The MIC [7] was 31.2 µg/mL (≈ 63.6 µM), the zone of inhibition at 500 µg/mL [8] was 20 mm and the MBC [9] was 17.6 µg/mL (≈ 35.7 µM). For the same molecule, the MIC [10] was 15.6 µg/mL (≈ 31.8 µM), the zone of inhibition at 500 µg/mL [11] was 16 mm and the MBC [12] was 100 µg/mL (≈ 203 µM). It also gave an MBC [13] of 7.8 µg/mL (≈ 15.9 µM), an Activity [14] of 136.7% and an MIC [15] of 12.5 µg/mL (≈ 25.4 µM). It also gave an MBC [16] of 5.07 µg/mL (≈ 10.3 µM), an MIC [17] of 8.88 µg/mL (≈ 18.1 µM) and an MBC [18] of 6.66 µg/mL (≈ 13.5 µM). For the same molecule, the zone of inhibition at 500 µg/mL [19] was 21 mm, the MIC [20] was 4.44 µg/mL (≈ 9.03 µM) and the MIC [21] was 62.5 µg/mL (≈ 127 µM). It also gave an MBC [22] of 53.1 µg/mL (≈ 108 µM), an MIC [23] of 88.3 µg/mL (≈ 180 µM) and a zone of inhibition at 500 µg/mL [24] of 23 mm. It also gave a zone of inhibition at 500 µg/mL [25] of 23 mm, an IC50 [26] of 25.1 µM and a zone of inhibition at 500 µg/mL [27] of 23 mm. The MBC [28] was 20.3 µg/mL (≈ 41.3 µM), the MFC [29] was 15.6 µg/mL (≈ 31.8 µM) and the MFC [30] was 177 µg/mL (≈ 359 µM). The zone of inhibition at 500 µg/mL [31] was 20 mm and the zone of inhibition at 500 µg/mL [32] was 20 mm.
With CC(=O)C1=C(c2ccccc2)OC(N)=C(C#N)C12C(=O)Nc1ccc(S(=O)(=O)N3CCCCC3)cc12 (centres undefined) the MIC [1] was 0.97 µg/mL (≈ 1.92 µM), the zone of inhibition at 500 µg/mL [2] was 23 mm and the zone of inhibition at 500 µg/mL [3] was 27 mm. It also gave an MIC [4] of 0.78 µg/mL (≈ 1.55 µM), an MIC [5] of 1.95 µg/mL (≈ 3.86 µM) and an MBC [6] of 3.9 µg/mL (≈ 7.73 µM). It also gave an MIC [7] of 62.5 µg/mL (≈ 124 µM), a zone of inhibition at 500 µg/mL [8] of 25 mm and an MBC [9] of 43.7 µg/mL (≈ 86.7 µM). It also gave an MIC [10] of 17.8 µg/mL (≈ 35.2 µM), a zone of inhibition at 500 µg/mL [11] of 19 mm and an MBC [12] of 58.6 µg/mL (≈ 116 µM). It also gave an MBC [13] of 1.55 µg/mL (≈ 3.07 µM), an Activity [14] of 972% and an MIC [15] of 31.5 µg/mL (≈ 62.4 µM). It also gave an MBC [16] of 1.56 µg/mL (≈ 3.09 µM), an MIC [17] of 15.6 µg/mL (≈ 31 µM) and an MBC [18] of 1.94 µg/mL (≈ 3.84 µM). It also gave a zone of inhibition at 500 µg/mL [19] of 22 mm, an MIC [20] of 0.97 µg/mL (≈ 1.92 µM) and an MIC [21] of 35.5 µg/mL (≈ 70.5 µM). It also gave an MBC [22] of 87.5 µg/mL (≈ 173 µM), an MIC [23] of 88.3 µg/mL (≈ 175 µM) and a zone of inhibition at 500 µg/mL [24] of 24 mm. For the same molecule, the zone of inhibition at 500 µg/mL [25] was 25 mm, the IC50 [26] was 18.1 µM and the zone of inhibition at 500 µg/mL [27] was 26 mm. For the same molecule, the MBC [28] was 28.4 µg/mL (≈ 56.3 µM), the MFC [29] was 31.2 µg/mL (≈ 61.9 µM) and the MFC [30] was 150 µg/mL (≈ 298 µM). It also gave a zone of inhibition at 500 µg/mL [31] of 22 mm and a zone of inhibition at 500 µg/mL [32] of 23 mm.
